Measured values published in the NIST ThermoML archive (doi:10.1016/j.jct.2011.02.018).

Experiment: xn = mol fraction of the nth substance listed
Details: 101 kPa, Liquid; for viscosity: Concentric cylinders viscometry; for mass density: Vibrating tube method

COC(C)(C)C [2-methoxy-2-methylpropane] + CCCCCO
Details | mass density, 293.15 K [kg/m3] | mass density, 298.15 K [kg/m3] | mass density, 303.15 K [kg/m3] | mass density, 308.15 K [kg/m3] | viscosity, 293.15 K [mPa·s] | viscosity, 298.15 K [mPa·s] | viscosity, 303.15 K [mPa·s] | viscosity, 308.15 K [mPa·s]
x1 = 0.0105 | 813.89 | 810.25 | 806.55 | 802.82 | 3.895 | 3.372 | 2.932 | 2.562
x1 = 0.0197 | 813.34 | 809.68 | 805.95 | 802.2 | 3.775 | 3.273 | 2.852 | 2.493
x1 = 0.0321 | 812.56 | 808.89 | 805.15 | 801.39 | 3.615 | 3.143 | 2.743 | 2.406
x1 = 0.0401 | 812.06 | 808.37 | 804.63 | 800.86 | 3.516 | 3.059 | 2.675 | 2.344
x1 = 0.0506 | 811.39 | 807.69 | 803.93 | 800.15 | 3.394 | 2.958 | 2.588 | 2.274
x1 = 0.0595 | 810.83 | 807.12 | 803.35 | 799.56 | 3.292 | 2.872 | 2.517 | 2.214
x1 = 0.0699 | 810.18 | 806.45 | 802.67 | 798.87 | 3.176 | 2.778 | 2.438 | 2.149
x1 = 0.0811 | 809.49 | 805.73 | 801.94 | 798.11 | 3.061 | 2.683 | 2.357 | 2.079
x1 = 0.0901 | 808.93 | 805.14 | 801.33 | 797.5 | 2.97 | 2.606 | 2.294 | 2.028
x1 = 0.1042 | 808.03 | 804.23 | 800.41 | 796.55 | 2.841 | 2.495 | 2.214 | 1.949
x1 = 0.1506 | 805.02 | 801.2 | 797.3 | 793.39 | 2.45 | 2.168 | 1.927 | 1.716
x1 = 0.2078 | 801.27 | 797.36 | 793.4 | 789.41 | 2.058 | 1.837 | 1.648 | 1.473
x1 = 0.252 | 798.32 | 794.34 | 790.33 | 786.28 | 1.809 | 1.619 | 1.457 | 1.312
x1 = 0.301 | 795.01 | 790.96 | 786.88 | 782.75 | 1.574 | 1.418 | 1.281 | 1.159
x1 = 0.3492 | 791.65 | 787.57 | 783.41 | 779.21 | 1.387 | 1.254 | 1.135 | 1.033
x1 = 0.3996 | 788.14 | 783.99 | 779.75 | 775.48 | 1.207 | 1.098 | 1 | 0.9139
x1 = 0.4577 | 784 | 779.75 | 775.42 | 771.06 | 1.042 | 0.953 | 0.8735 | 0.8008
x1 = 0.4985 | 781.06 | 776.76 | 772.36 | 767.93 | 0.9442 | 0.8668 | 0.7962 | 0.7313
x1 = 0.5512 | 777.21 | 772.8 | 768.33 | 763.81 | 0.8364 | 0.7702 | 0.7102 | 0.6515
x1 = 0.5999 | 773.61 | 769.09 | 764.55 | 759.95 | 0.7504 | 0.6941 | 0.6401 | 0.5895
x1 = 0.6506 | 769.72 | 765.16 | 760.51 | 755.83 | 0.6719 | 0.6222 | 0.5765 | 0.5309
x1 = 0.6986 | 766.04 | 761.39 | 756.67 | 751.9 | 0.606 | 0.5627 | 0.5215 | 0.4812
x1 = 0.7451 | 762.49 | 757.72 | 752.92 | 748.06 | 0.5517 | 0.5167 | 0.4765 | 0.4421
x1 = 0.7976 | 758.12 | 753.3 | 748.39 | 743.42 | 0.4971 | 0.4653 | 0.4332 | 0.4011
x1 = 0.8534 | 753.55 | 748.61 | 743.59 | 738.51 | 0.4455 | 0.4172 | 0.3868 | 0.3584
x1 = 0.898 | 749.74 | 744.73 | 739.63 | 734.47 | 0.4101 | 0.3855 | 0.3594 | 0.3315
x1 = 0.9098 | 748.75 | 743.7 | 738.59 | 733.41 | 0.4017 | 0.3772 | 0.3526 | 0.3257
x1 = 0.9195 | 747.92 | 742.85 | 737.72 | 732.53 | 0.3954 | 0.3701 | 0.3467 | 0.3192
x1 = 0.9289 | 747.1 | 742.01 | 736.85 | 731.64 | 0.388 | 0.3658 | 0.3396 | 0.3137
x1 = 0.9419 | 745.96 | 740.85 | 735.67 | 730.43 | 0.3807 | 0.3564 | 0.3307 | 0.3102
x1 = 0.9495 | 745.29 | 740.17 | 734.96 | 729.72 | 0.3752 | 0.354 | 0.3276 | 0.3054
x1 = 0.9594 | 744.4 | 739.28 | 734.04 | 728.78 | 0.3682 | 0.3458 | 0.3227 | 0.3007
x1 = 0.9688 | 743.56 | 738.42 | 733.17 | 727.88 | 0.3623 | 0.3405 | 0.317 | 0.2966
x1 = 0.9792 | 742.63 | 737.46 | 732.2 | 726.89 | 0.3563 | 0.3352 | 0.3104 | 0.2916
x1 = 0.9902 | 741.63 | 736.44 | 731.16 | 725.83 | 0.3533 | 0.3291 | 0.3035 | 0.2863
